{
  "source": "paper PMC10865871",
  "about": "“Homologous acetone carboxylases select Fe(II) or Mn(II) as the catalytic cofactor” (mBio, 2023)",
  "key": {"[1]": {"biological_target": "T1, A. aromaticum AC (acetone carboxylase, (αβγ)2) (Aromatoleum aromaticum, UniProt Q5P1N4+Q5P1N5)", "T1 construct": "gene acxB; recombinant in E. coli BL21(DE3), pET-Duet vectors; N-terminal 6-His tag on beta subunit; (αβγ)2 heterohexamer; with Acetone carboxylase gamma subunit", "T1 sequence (Q5P1N4 1-774)": "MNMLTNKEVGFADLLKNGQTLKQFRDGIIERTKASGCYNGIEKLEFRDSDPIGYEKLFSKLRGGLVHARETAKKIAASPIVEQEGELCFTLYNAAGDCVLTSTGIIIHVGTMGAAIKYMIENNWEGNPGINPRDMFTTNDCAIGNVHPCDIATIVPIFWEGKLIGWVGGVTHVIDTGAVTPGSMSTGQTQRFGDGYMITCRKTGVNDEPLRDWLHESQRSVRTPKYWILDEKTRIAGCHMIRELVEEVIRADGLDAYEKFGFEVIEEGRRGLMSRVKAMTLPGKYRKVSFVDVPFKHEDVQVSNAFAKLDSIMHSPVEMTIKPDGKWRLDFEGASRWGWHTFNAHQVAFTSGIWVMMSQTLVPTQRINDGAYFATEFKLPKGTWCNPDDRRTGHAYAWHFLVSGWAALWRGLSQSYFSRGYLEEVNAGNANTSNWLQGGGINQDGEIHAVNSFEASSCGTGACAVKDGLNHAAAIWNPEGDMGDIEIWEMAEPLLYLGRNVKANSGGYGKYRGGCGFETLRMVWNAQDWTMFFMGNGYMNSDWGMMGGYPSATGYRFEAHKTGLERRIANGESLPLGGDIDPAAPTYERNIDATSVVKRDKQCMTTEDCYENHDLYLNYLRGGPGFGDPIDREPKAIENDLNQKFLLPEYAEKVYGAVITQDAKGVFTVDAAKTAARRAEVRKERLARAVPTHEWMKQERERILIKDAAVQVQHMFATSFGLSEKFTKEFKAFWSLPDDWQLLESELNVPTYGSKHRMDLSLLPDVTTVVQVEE", "T1 sequence (Q5P1N5 1-716)": "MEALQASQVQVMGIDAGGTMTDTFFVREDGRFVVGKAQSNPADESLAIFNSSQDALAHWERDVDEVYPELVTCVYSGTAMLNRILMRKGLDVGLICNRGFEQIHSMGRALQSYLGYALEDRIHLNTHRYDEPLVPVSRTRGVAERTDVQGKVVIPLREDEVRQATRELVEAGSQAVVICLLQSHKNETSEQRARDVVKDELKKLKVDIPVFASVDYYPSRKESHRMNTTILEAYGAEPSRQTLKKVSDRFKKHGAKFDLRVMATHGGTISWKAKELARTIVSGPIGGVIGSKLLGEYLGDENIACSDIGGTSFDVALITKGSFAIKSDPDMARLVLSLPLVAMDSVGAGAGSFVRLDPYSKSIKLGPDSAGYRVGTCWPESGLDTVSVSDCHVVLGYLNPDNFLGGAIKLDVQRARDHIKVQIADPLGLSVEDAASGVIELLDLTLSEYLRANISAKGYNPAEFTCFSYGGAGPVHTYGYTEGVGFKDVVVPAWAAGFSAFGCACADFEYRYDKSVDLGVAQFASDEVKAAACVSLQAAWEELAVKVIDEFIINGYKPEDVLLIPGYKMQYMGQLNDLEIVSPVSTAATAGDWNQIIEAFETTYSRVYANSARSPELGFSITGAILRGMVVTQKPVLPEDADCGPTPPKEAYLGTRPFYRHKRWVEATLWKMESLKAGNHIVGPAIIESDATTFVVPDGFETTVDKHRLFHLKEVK", "T1 sequence (Q5P1N3 1-168 partner)": "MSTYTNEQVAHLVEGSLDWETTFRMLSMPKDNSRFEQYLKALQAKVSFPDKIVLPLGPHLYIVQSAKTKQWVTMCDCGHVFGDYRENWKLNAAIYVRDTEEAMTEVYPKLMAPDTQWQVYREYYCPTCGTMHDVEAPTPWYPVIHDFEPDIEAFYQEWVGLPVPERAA", "test": "[…] Moessbauer; EPR of Mn(II)-reconstituted enzyme", "format": "binding", "settings": "1 mM AMP, pH 7.6, 57Fe(II)-reconstituted, 80 K (Moessbauer); 10 mM AMP, 1 mM MgCl2 (EPR)"}, "[2]": {"biological_target": "T2, X. autotrophicus AC (acetone carboxylase, (αβγ)2) (Xanthobacter versatilis, UniProt Q8RM03+Q8RM04)", "T2 construct": "gene acxB; recombinant in E. coli BL21(DE3), pET-Duet vectors; N-terminal 6-His tag on beta subunit; (αβγ)2 heterohexamer; AMP site in beta, metal site in alpha; with Acetone carboxylase gamma subunit", "T2 sequence (Q8RM03 1-776)": "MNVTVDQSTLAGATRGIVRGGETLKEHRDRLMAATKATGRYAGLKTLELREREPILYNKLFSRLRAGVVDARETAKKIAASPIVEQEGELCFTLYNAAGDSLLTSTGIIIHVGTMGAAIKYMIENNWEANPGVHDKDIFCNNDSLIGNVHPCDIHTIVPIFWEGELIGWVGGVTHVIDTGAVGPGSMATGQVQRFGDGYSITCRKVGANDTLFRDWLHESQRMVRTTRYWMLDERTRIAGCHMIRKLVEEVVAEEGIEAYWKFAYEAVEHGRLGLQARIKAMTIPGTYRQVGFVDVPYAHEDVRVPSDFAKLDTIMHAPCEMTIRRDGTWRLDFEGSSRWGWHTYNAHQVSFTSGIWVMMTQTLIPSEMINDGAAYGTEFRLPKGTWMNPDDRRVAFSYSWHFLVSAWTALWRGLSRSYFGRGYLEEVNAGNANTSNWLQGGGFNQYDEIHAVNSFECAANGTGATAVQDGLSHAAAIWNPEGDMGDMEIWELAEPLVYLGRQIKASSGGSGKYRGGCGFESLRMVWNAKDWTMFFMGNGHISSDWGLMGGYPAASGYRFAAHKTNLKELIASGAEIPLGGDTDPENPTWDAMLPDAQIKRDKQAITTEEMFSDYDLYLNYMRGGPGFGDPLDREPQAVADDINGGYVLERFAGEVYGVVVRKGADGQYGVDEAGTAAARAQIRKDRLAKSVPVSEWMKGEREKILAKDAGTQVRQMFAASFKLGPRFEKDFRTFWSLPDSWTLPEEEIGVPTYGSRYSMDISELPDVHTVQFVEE", "T2 sequence (Q8RM04 1-717)": "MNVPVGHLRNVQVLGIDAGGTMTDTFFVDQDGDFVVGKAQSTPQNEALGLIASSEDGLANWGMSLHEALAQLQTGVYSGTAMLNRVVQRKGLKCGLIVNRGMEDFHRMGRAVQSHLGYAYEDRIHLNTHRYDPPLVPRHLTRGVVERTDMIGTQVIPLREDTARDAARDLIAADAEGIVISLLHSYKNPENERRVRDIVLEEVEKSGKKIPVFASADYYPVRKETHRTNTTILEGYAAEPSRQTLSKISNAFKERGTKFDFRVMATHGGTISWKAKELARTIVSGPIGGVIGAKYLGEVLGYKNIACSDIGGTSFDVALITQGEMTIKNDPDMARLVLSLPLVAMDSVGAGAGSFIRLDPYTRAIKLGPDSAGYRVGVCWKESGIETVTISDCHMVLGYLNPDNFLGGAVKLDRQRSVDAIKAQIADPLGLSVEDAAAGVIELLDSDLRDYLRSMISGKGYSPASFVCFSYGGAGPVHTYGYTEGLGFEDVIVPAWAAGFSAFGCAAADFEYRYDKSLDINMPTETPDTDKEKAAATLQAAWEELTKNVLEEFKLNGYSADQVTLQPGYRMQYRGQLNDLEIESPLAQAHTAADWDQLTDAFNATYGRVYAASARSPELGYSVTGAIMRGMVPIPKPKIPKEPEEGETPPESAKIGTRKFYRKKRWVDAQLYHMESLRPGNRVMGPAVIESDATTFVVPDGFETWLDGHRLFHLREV", "T2 sequence (Q8RM02 2-168 partner)": "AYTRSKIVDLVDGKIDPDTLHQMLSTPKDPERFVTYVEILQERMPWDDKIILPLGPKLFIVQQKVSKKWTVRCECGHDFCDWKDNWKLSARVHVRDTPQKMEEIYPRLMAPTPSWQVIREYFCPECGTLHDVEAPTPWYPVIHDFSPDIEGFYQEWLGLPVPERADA", "test": "EPR of active-site Mn(II); […] Moessbauer", "format": "binding", "settings": "10 mM AMP, 1 mM MgCl2, pH 7.6, 12 K (EPR); Mn(II)-bound enzyme"}},
  "data": [
    {"smiles": "Nc1ncnc2c1ncn2[C@@H]1O[C@H](COP(=O)(O)O)[C@@H](O)[C@H]1O", "note": "[AMP]", "values": [
      {"measurement": "57Fe Moessbauer; EPR of Mn(II)-reconstituted enzyme", "setting": "[1]", "result": "three of which (blue, red, and orange) were affected by the addition of AMP"},
      {"measurement": "EPR of active-site Mn(II); 57Fe Moessbauer", "setting": "[2]", "result": "Upon the addition of MgAMP, the apparent Mn(II) signal sharpened and intensified"}
    ]}
  ]
}
